Source: patent US20170246166A1, “1,2-BENZOTHIAZOLE COMPOUNDS FOR THE TREATMENT OF KIDNEY DISORDERS” (priority 2014, published 2017)
pIC50: −log10 of the molar value.

Tests used:
[1] = system: persons with type 2 diabetes and nephropathy; conditions: in combination with an ACE inhibitor, ARB, or both; cited from earlier work
PKC = assay: Cell-based assay of PKC inhibition (PKC substrate phosphorylation in THP-1 cells); conditions: human THP-1 cells, 1.5 h compound, then 20 nM PMA for 30 min; read-out: absolute IC50, PKC substrate phosphorylation
Method: The purpose of this assay is to test the inhibitory effects of a test compound on PKC in a cell-based system by measuring the level of PKC substrate phosphorylation.
Staurosporin may be used as a positive control. It is prepared in DMSO to make up a […] solution and then serially diluted in plain RPMI 1640 culture medium (10 μM-0.0005 μM) to obtain a ten-point dilution curve. Test compounds are prepared in the same manner.
THP-1 cells (human macrophage cell line) are obtained from ATCC (ATCC TIB-202 lot 4028542). The cells are cultured in 96-well plates coated with poly-d-lysine (Becton Dickinson) with seeding density of 4000 cells/well in RPMI 1640 culture medium (Gibco) with 1% fetal bovine serum (Gibco). […]
After the incubation, the cells are first fixed in the Prefer fixative (ANATECH LTD) for 30 min at room temperature. […] Plates are scanned with an ACUMEN EXPLORER™ Laser-scanning fluorescence microplate cytometer (TTP LABTECH LTD), with 488 nm laser excitation to detect emission fluorescence at 655 nm-705 nm (emission of DNA bound propidium iodide) for cell counting/well, and emission of 505 nm-530 nm fluorescence of antibody binding to phosphorylated PKC substrates in cells. The main assay output is a ratio of total fluorescence of phosphorylated PKC substrates to total cell number (ratio=total intensity/total cell number). […]

Row | Structure (SMILES) | effects on albuminuria and renal function [1] | pIC50 (PKC)
1 | CN(C)C[C@@H]1CCn2cc(c3ccccc32)C2=C(C(=O)NC2=O)c2cn(c3ccccc23)CCO1 [ruboxistaurin] | favorable effects on albuminuria and renal function | 
